Test results published in ChEMBL document CHEMBL3351325, “Synthesis and biological evaluation of hydroxycinnamic acid hydrazide derivatives as inducer of caspase-3” (Eur J Med Chem, 2014).
Activity calls are given as the source filed them. The calls are words filed in the database; no cut-off is given here.

How the values were obtained:
[1] = Antiproliferative activity against human H1299 cells after 24 hrs by MTT assay; type: functional, cell-based; conditions: NCI-H1299, 24 h
[2] = Antiproliferative activity against human NL20 cells after 24 hrs by MTT assay; type: cell-based; conditions: NL20, 24 h
MCF7 = assay: Antiproliferative activity against human MCF7 cells after 24 hrs by MTT assay; type: functional, cell-based; conditions: MCF7, 24 h
[3] = Antiproliferative activity against human H184B5F5/M10 cells after 24 hrs by MTT assay; type: functional, cell-based; conditions: H184B5F5/M10, 24 h
[4] = Cell cycle arrest in human H1299 cells assessed as accumulation at Sub-G1 phase at 1.5 uM after 12 hrs by flow cytometry (reference value: 5.3%); type: functional, cell-based; conditions: NCI-H1299
[5] = Cell cycle arrest in human H1299 cells assessed as accumulation at Sub-G1 phase at 1.5 uM after 24 hrs by flow cytometry (reference value: 5.3%); type: functional, cell-based; conditions: NCI-H1299
[6] = Cell cycle arrest in human H1299 cells assessed as reduction in G1 phase at 1.5 uM after 12 to 24 hrs by flow cytometry; type: functional, cell-based; conditions: NCI-H1299
[7] = Cell cycle arrest in human H1299 cells assessed as accumulated at G2/M phase at 1.5 uM by flow cytometry; type: functional, cell-based; conditions: NCI-H1299, TDE = time-dependent effect
[8] = Cell cycle arrest in human H1299 cells assessed as accumulated at G2/M phase at 1.5 uM after 12 hrs by flow cytometry (reference value: 5.4%); type: functional, cell-based; conditions: NCI-H1299
[9] = Cell cycle arrest in human H1299 cells assessed as accumulated at G2/M phase at 1.5 uM after 24 hrs by flow cytometry (reference value: 5.4%); type: functional, cell-based; conditions: NCI-H1299
[10] = Cell cycle arrest in human NL20 cells assessed as accumulation at Sub-G1 phase at 1.5 uM after 12 hrs by flow cytometry (reference value: 4.6 %); type: ADME, cell-based; conditions: nl20, 12 h
[11] = Cell cycle arrest in human NL20 cells assessed as accumulation at Sub-G1 phase at 1.5 uM after 24 hrs by flow cytometry (reference value: 4.6 %); type: ADME, cell-based; conditions: nl20, 24 h
[12] = Cell cycle arrest in human NL20 cells assessed as accumulation at G2/M phase at 1.5 uM after 12 to 24 hrs by flow cytometry; type: ADME, cell-based; conditions: nl20, 1.5 µM
NCI-H1299 [13] = assay: Induction of apoptosis in human H1299 cells assessed as change in morphology at 1.5 uM after 24 hrs using Acridine orange/ethidium bromide staining by fluorescence microscopy; type: functional, cell-based
NCI-H1299 [14] = assay: Induction of apoptosis in human H1299 cells assessed as caspase 3 protein expression after 24 hrs by Western blot analysis; type: functional, cell-based

| IC50 (MCF7) | Compound | IC50 [1] | IC50 [2] | IC50 [3] | other results |
| --- | --- | --- | --- | --- | --- |
| 4.86 µM | COc1ccc(C(=O)NNC(=O)/C=C/c2ccc(O)c(O)c2)cc1 | 5.42 µM | 9.39 µM | 9.57 µM | – |
| 4.36 µM | COc1cc(/C=C/C(=O)NNC(=O)c2ccc(O)cc2)ccc1O | 1.5 µM | > 10 µM | > 10 µM | Activity [4]: 8.9%; Activity [5]: 12.3%; Activity [6]: Active; Activity [7]: tde; Activity [8]: 31.7%; Activity [9]: 46.2%; Activity [10]: 5.2%; Activity [11]: 4.9%; Activity [12]: Non-toxic; Activity (NCI-H1299 [13]): Active; Activity (NCI-H1299 [14]): Dose-dependent effect |
| 7.17 µM | COc1ccc(C(=O)NNC(=O)/C=C/c2cc(OC)c(O)c(OC)c2)cc1 | 7.45 µM | 9.42 µM | 9.45 µM | – |
| 8.8 µM | O=C(/C=C/c1ccc(O)cc1)NNC(=O)c1ccc(O)cc1 | 5.47 µM | 8.62 µM | > 10 µM | – |
| 6.02 µM | COc1ccc(C(=O)NNC(=O)/C=C/c2ccc(O)cc2)cc1 | 6.64 µM | > 10 µM | 8.44 µM | – |
| 6.05 µM | O=C(/C=C/c1ccc(O)c(O)c1)NNC(=O)c1ccc(O)cc1 | 4.48 µM | > 10 µM | 8.68 µM | – |
| 9.32 µM | COc1cc(/C=C/C(=O)NNC(=O)c2ccc(O)cc2)cc(OC)c1O | 8.71 µM | > 10 µM | > 10 µM | – |
| 5.62 µM | COc1ccc(C(=O)NNC(=O)/C=C/c2ccc(O)c(OC)c2)cc1 | 5.42 µM | > 10 µM | > 10 µM | – |
| > 10 µM | COc1cc(/C=C/C(=O)NNC(=O)c2ccccc2)cc(OC)c1O | > 10 µM | > 10 µM | > 10 µM | – |
| 4.75 µM | O=C(/C=C/c1ccc(O)c(O)c1)NNC(=O)c1ccccc1 | 6.77 µM | 8.85 µM | 8.12 µM | – |
| 5.22 µM | COc1cc(/C=C/C(=O)NNC(=O)c2ccccc2)ccc1O | 6.16 µM | 9.55 µM | 9.17 µM | – |
| 7.39 µM | O=C(/C=C/c1ccc(O)cc1)NNC(=O)c1ccccc1 | 7.36 µM | 9.75 µM | 9.32 µM | – |
| 3.46 µM | CC[C@@]1(O)C(=O)OCc2c1cc1n(c2=O)Cc2cc3c(CN(C)C)c(O)ccc3nc2-1 [TOPOTECAN] | 4.18 µM | > 10 µM | > 10 µM | – |
